This passage reports T/C results from PubChem BioAssay AID194 (DTP/NCI, 2004).

Values joined by “and” are separate entries in the source; they are usually repeats but may differ in a detail not shown here. Equal values may be shown once. Inconclusive results are not listed. Where a SMILES comes first, the peptide text is derived from it. Bridges are numbered along the chain shown (N, C = ends). Roman numbers before positions name the chains, in order. [ ]: non-standard residue; d: D form. The star is where a group is joined. Quinoxaline2carbonyl = O=C(c1cnc2ccccc2n1)*; NMeV = CN[CH](C(=O)O)C(C)C; NMeC = CN[CH](CS)C(=O)O

The test system of this test is BDF1 mice, B16 melanoma s.c., survival/tumor T/C. In words: NCI In Vivo Anticancer Drug Screen. Data for tumor model B16 Melanoma (subcutaneous) in B6D2F1 (BDF1) mice. As to the method:
The antitumor activity of compounds was measured in mice bearing transplantable tumors. Survival or tumor size were measured and the results are expressed as the measurement made in the treated group (T) divided by the measurement made in the vehicle treated control group (C). The tumor model used in this assay is B16 Melanoma (subcutaneous) in B6D2F1 (BDF1) mice

Where [1] appears, read: endpoint: median survival time, dose: 8.0 mg/kg/injection, schedule: Q01DX009 (ip), vehicle: Klucel (hydroxypropylcellulose) (HPC), higher = longer survival.
[2] abbreviates: endpoint: median survival time, dose: 0.5 mg/kg/injection, schedule: Q01DX009 (ip), vehicle: saline, higher = longer survival.
[3] abbreviates: endpoint: median survival time, dose: 1.0 mg/kg/injection, schedule: Q01DX009 (ip), vehicle: saline, higher = longer survival.

As for `Nc1c(Cl)c(Cl)nc(C(=O)O)c1Cl`, the T/C (endpoint: median survival time, dose: 3.12 mg/kg/injection, schedule: Q02DX009 (ip), vehicle: Klucel (hydroxypropylcellulose) (HPC), higher = longer survival) was 108 % of control; the T/C (endpoint: median survival time, dose: 6.25 mg/kg/injection, schedule: Q01DX015 (sc), vehicle: other, higher = longer survival) is 105 % of control; the T/C (endpoint: median survival time, dose: 6.25 mg/kg/injection, schedule: Q02DX009 (ip), vehicle: Klucel (hydroxypropylcellulose) (HPC), higher = longer survival) is 97 % of control; the T/C (endpoint: median survival time, dose: 12.5 mg/kg/injection, schedule: Q01DX015 (sc), vehicle: other, higher = longer survival) was 105 % of control; the T/C (endpoint: median survival time, dose: 25.0 mg/kg/injection, schedule: Q01DX015 (sc), vehicle: other, higher = longer survival) was 101 % of control; the T/C (endpoint: median survival time, dose: 50.0 mg/kg/injection, schedule: Q02DX009 (ip), vehicle: Klucel (hydroxypropylcellulose) (HPC), higher = longer survival) was 94 % of control. Also, the T/C (endpoint: median survival time, dose: 100.0 mg/kg/injection, schedule: Q02DX009 (ip), vehicle: Klucel (hydroxypropylcellulose) (HPC), higher = longer survival) is 90 % of control and the T/C (endpoint: median survival time, dose: 200.0 mg/kg/injection, schedule: Q02DX009 (ip), vehicle: Klucel (hydroxypropylcellulose) (HPC), higher = longer survival) is 87 % of control.

Regarding `CC1NC(=O)C(NC(=O)c2cnc3ccccc3n2)COC(=O)C(C(C)C)N(C)C(=O)C2CSSCC(C(=O)N(C)C(C(C)C)C(=O)OCC(NC(=O)c3cnc4ccccc4n3)C(=O)NC(C)C(=O)N2C)N(C)C1=O` (stereo unspecified) (I: Quinoxaline2carbonyl-SA[NMeC][NMeV] / II: Quinoxaline2carbonyl-SA[NMeC][NMeV]; ester I:1-II:C, I:C-II:1; disulfide I:3-II:3; configuration not given here), the T/C was 91 % of control (endpoint: median survival time, dose: 11.2 micrograms/kg/injection, schedule: Q01DX009 (ip), vehicle: Klucel (hydroxypropylcellulose) (HPC), higher = longer survival); 107 % of control (endpoint: median survival time, dose: 22.5 micrograms/kg/injection, schedule: Q01DX009 (ip), vehicle: Klucel (hydroxypropylcellulose) (HPC), higher = longer survival); 109 % of control (endpoint: median survival time, dose: 45.0 micrograms/kg/injection, schedule: Q01DX009 (ip), vehicle: Klucel (hydroxypropylcellulose) (HPC), higher = longer survival); 104 % of control (endpoint: median survival time, dose: 90.0 micrograms/kg/injection, schedule: Q01DX009 (ip), vehicle: Klucel (hydroxypropylcellulose) (HPC), higher = longer survival).

Take `COC12C(COC(N)=O)C3=C(C(=O)C(C)=C(N)C3=O)N1CC1C2N1C` (stereo unspecified): the T/C (endpoint: median survival time, dose: 1.0 mg/kg/injection, schedule: Q01DX009 (ip), vehicle: Klucel (hydroxypropylcellulose) (HPC), higher = longer survival) is 106 % of control; the T/C (endpoint: median survival time, dose: 2.0 mg/kg/injection, schedule: Q01DX009 (ip), vehicle: Klucel (hydroxypropylcellulose) (HPC), higher = longer survival) was 91 % of control; the T/C under setting [1] is 109 % of control.

On to `Cc1cc(NC(=O)NCc2ccc(N3C(N)=NC(N)=NC3(C)C)cc2)ccc1S(=O)(=O)F`, for which the T/C is, setting by setting: (endpoint: median survival time, dose: 50.0 mg/kg/injection, schedule: Q04DX003 (ip), vehicle: saline, higher = longer survival) 106 % of control; (endpoint: median survival time, dose: 100.0 mg/kg/injection, schedule: Q04DX003 (ip), vehicle: saline, higher = longer survival) 95 % of control.

In the case of `O=NN(CCF)C(=O)NC1CCC(=O)NC1=O` (stereo unspecified), the T/C by setting is: (endpoint: median survival time, dose: 3.11 mg/kg/injection, schedule: Q01DX007 (ip), vehicle: Klucel (hydroxypropylcellulose) (HPC), higher = longer survival) 121 % of control; (endpoint: median survival time, dose: 5.18 mg/kg/injection, schedule: Q01DX007 (ip), vehicle: Klucel (hydroxypropylcellulose) (HPC), higher = longer survival) 124 % of control; (endpoint: median survival time, dose: 8.64 mg/kg/injection, schedule: Q01DX007 (ip), vehicle: Klucel (hydroxypropylcellulose) (HPC), higher = longer survival) 164 % of control.

Turning to `CC[CH2][Sn]([CH2]CC)([CH2]CC)[O][Sn]([CH2]CC)([CH2]CC)[CH2]CC`, the T/C by setting is: under setting [2], 123 % of control; under setting [3], 114 % of control; (endpoint: median survival time, dose: 2.0 mg/kg/injection, schedule: Q01DX009 (ip), vehicle: saline, higher = longer survival) 100 % of control.

Take `Cc1cc(OCc2nc(N)nc(N)c2-c2ccc(Cl)c(Cl)c2)ccc1NS(=O)(=O)c1cccc(S(=O)(=O)F)c1`: the T/C (endpoint: median survival time, dose: 117.0 mg/kg/injection, schedule: Q04DX003 (ip), vehicle: saline, higher = longer survival) is 95 % of control and the T/C (endpoint: median survival time, dose: 176.0 mg/kg/injection, schedule: Q04DX003 (ip), vehicle: saline, higher = longer survival) is 118 % of control.

In the case of `ClC1=NC(Cl)C(Cl)=N/C1=N\c1ncn[nH]1` (stereo unspecified), the T/C by setting is: (endpoint: median survival time, dose: 4.0 mg/kg/injection, schedule: Q01DX009 (ip), vehicle: Klucel (hydroxypropylcellulose) (HPC), higher = longer survival) 106 % of control; (endpoint: median survival time, dose: 4.0 mg/kg/injection, schedule: Q01DX009 (ip), vehicle: water, higher = longer survival) 89 % of control; under setting [1], 113 % of control; (endpoint: median survival time, dose: 16.0 mg/kg/injection, schedule: Q01DX009 (ip), vehicle: Klucel (hydroxypropylcellulose) (HPC), higher = longer survival) 101 % of control; (endpoint: median survival time, dose: 16.0 mg/kg/injection, schedule: Q01DX009 (ip), vehicle: water, higher = longer survival) 170 % of control; (endpoint: median survival time, dose: 32.0 mg/kg/injection, schedule: Q01DX009 (ip), vehicle: water, higher = longer survival) 121 % of control.

Take `O=NN(CCCl)C(=O)NCCO`: the T/C by setting is: (endpoint: median survival time, dose: 2.59 mg/kg/injection, schedule: Q01DX007 (ip), vehicle: water, higher = longer survival) 102 % of control; (endpoint: median survival time, dose: 4.32 mg/kg/injection, schedule: Q01DX007 (ip), vehicle: water, higher = longer survival) 98 % of control.

Consider `Nc1ncn(C2OC(CO)C(O)C2O)c(=O)n1` (stereo unspecified), for which the T/C (endpoint: median survival time, dose: 0.2 mg/kg/injection, schedule: Q01DX009 (ip), vehicle: saline, higher = longer survival) was 100 % of control; the T/C (endpoint: median survival time, dose: 0.4 mg/kg/injection, schedule: Q01DX009 (ip), vehicle: saline, higher = longer survival) is 104 % of control; the T/C under setting [2] is 87 % of control; the T/C (endpoint: median survival time, dose: 0.75 mg/kg/injection, schedule: Q01DX009 (ip), vehicle: Klucel (hydroxypropylcellulose) (HPC), higher = longer survival) is 111 % of control; the T/C (endpoint: median survival time, dose: 0.8 mg/kg/injection, schedule: Q01DX009 (ip), vehicle: saline, higher = longer survival) is 123 % of control; the T/C under setting [3] is 105 % of control. In addition, the T/C was 106 % of control (endpoint: median survival time, dose: 1.6 mg/kg/injection, schedule: Q01DX009 (ip), vehicle: saline, higher = longer survival); 114 % of control and 116 % of control (endpoint: median survival time, dose: 3.2 mg/kg/injection, schedule: Q01DX009 (ip), vehicle: saline, higher = longer survival); 87 % of control and 96 % of control (endpoint: median tumor weight (est.), dose: 0.75 mg/kg/injection, schedule: Q01DX009 (ip), vehicle: saline, higher = larger tumour); 41 % of control and 48 % of control (endpoint: median tumor weight (est.), dose: 1.5 mg/kg/injection, schedule: Q01DX009 (ip), vehicle: saline, higher = larger tumour); 52 % of control and 57 % of control (endpoint: median tumor weight (est.), dose: 3.0 mg/kg/injection, schedule: Q01DX009 (ip), vehicle: saline, higher = larger tumour); 21 % of control and 26 % of control (endpoint: median tumor weight (est.), dose: 6.0 mg/kg/injection, schedule: Q01DX009 (ip), vehicle: saline, higher = larger tumour).

With `O=C1c2c(O)ccc(O)c2C(=O)c2c(NCCNCCO)ccc(NCCNCCO)c21`, the T/C was 102 % of control (endpoint: median survival time, dose: 0.25 mg/kg/injection, schedule: Q01DX009 (ip), vehicle: other, higher = longer survival); 89 % of control (endpoint: median survival time, dose: 0.5 mg/kg/injection, schedule: Q01DX009 (ip), vehicle: other, higher = longer survival); 120 % of control (endpoint: median survival time, dose: 0.5 mg/kg/injection, schedule: Q01DX009 (ip), vehicle: saline with Tween-80, higher = longer survival); 106 % of control (endpoint: median survival time, dose: 1.0 mg/kg/injection, schedule: Q01DX009 (ip), vehicle: other, higher = longer survival); 90 % of control (endpoint: median survival time, dose: 2.0 mg/kg/injection, schedule: Q01DX009 (ip), vehicle: other, higher = longer survival); 102 % of control and 123 % of control (endpoint: median survival time, dose: 2.0 mg/kg/injection, schedule: Q01DX009 (ip), vehicle: saline with Tween-80, higher = longer survival).

For the compound `O=CC(NC(=O)N(CCCl)N=O)C(O)C(O)C(O)CO` (stereo unspecified), the T/C by setting is: (endpoint: median survival time, dose: 3.0 mg/kg/injection, schedule: Q01DX009 (ip), vehicle: saline, higher = longer survival) 115 % of control; (endpoint: median survival time, dose: 3.3 mg/kg/injection, schedule: Q01DX009 (ip), vehicle: saline, higher = longer survival) 115 % of control; (endpoint: median survival time, dose: 4.5 mg/kg/injection, schedule: Q01DX009 (ip), vehicle: saline, higher = longer survival) 112 % of control; (endpoint: median survival time, dose: 4.9 mg/kg/injection, schedule: Q01DX009 (ip), vehicle: saline, higher = longer survival) 102 % of control; (endpoint: median survival time, dose: 6.8 mg/kg/injection, schedule: Q01DX009 (ip), vehicle: saline, higher = longer survival) 89 % of control; (endpoint: median survival time, dose: 7.4 mg/kg/injection, schedule: Q01DX009 (ip), vehicle: saline, higher = longer survival) 100 % of control. The T/C is 122 % of control (endpoint: median survival time, dose: 10.0 mg/kg/injection, schedule: Q01DX009 (ip), vehicle: saline, higher = longer survival); 112 % of control (endpoint: median survival time, dose: 12.0 mg/kg/injection, schedule: Q04DX003 (ip), vehicle: saline, higher = longer survival); 118 % of control (endpoint: median survival time, dose: 13.0 mg/kg/injection, schedule: Q01DX001 (ip), vehicle: saline, higher = longer survival); 112 % of control (endpoint: median survival time, dose: 16.0 mg/kg/injection, schedule: Q01DX001 (ip), vehicle: saline, higher = longer survival); 106 % of control (endpoint: median survival time, dose: 18.0 mg/kg/injection, schedule: Q04DX003 (ip), vehicle: saline, higher = longer survival); 96 % of control (endpoint: median survival time, dose: 20.0 mg/kg/injection, schedule: Q01DX001 (ip), vehicle: saline, higher = longer survival). Moreover, the T/C runs as follows: (endpoint: median survival time, dose: 24.0 mg/kg/injection, schedule: Q01DX001 (ip), vehicle: saline, higher = longer survival) 102 % of control; (endpoint: median survival time, dose: 27.0 mg/kg/injection, schedule: Q04DX003 (ip), vehicle: saline, higher = longer survival) 108 % of control; (endpoint: median survival time, dose: 36.0 mg/kg/injection, schedule: Q01DX001 (ip), vehicle: saline, higher = longer survival) 112 % of control.
